Test results as given in patent US8802664B2 (Bioproject, priority 2010, dated 2014).

The compounds below were run against T1, human H4 receptor (Homo sapiens, UniProt Q9H3N8) (assay: [3H]Histamine binding on membranes of CHO cells stably expressing human H4 receptor). Settings: not given.
T1 construct: expressed in transfected cells
Summary of the method: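 Nonspecific signal was taken as that remaining with 10 μM JNJ 7777120 present. Assays contained 20 μg CHO-derived hH4 membrane protein in Tris/HCl–EDTA buffer (pH 7.4) and were terminated on polyethyleneimine-soaked filters, with bound tritium quantified by scintillation.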

T1 sequence (Q9H3N8 whole entry): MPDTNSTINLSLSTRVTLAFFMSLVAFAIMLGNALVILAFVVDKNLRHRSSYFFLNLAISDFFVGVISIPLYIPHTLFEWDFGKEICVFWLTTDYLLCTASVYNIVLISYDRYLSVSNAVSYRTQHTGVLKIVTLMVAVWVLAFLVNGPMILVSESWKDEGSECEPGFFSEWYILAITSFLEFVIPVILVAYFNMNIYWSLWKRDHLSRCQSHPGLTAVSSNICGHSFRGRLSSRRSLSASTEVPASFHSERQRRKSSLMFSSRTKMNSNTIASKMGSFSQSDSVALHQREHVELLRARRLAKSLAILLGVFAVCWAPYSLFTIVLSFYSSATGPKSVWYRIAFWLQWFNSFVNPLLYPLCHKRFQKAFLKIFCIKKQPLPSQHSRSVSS

SMILES | Ki or IC50 activity class [nM]
CCOCCn1c(C(OC2CCN(C)CC2)c2cccc(C#CCCCCN)c2)nc2ccccc21 (stereo not drawn) [Example 500] | < 300
Cc1ccc(C(OC2CCN(C)CC2)c2nc3ccccc3s2)s1 (stereo not drawn) [Example 19, 2-[(1-methylpiperidin-4-yloxy)(5-methylthiophen-2-yl)methyl]benzothiazole] | < 300
CN1CCC(OC(c2nc3ccccc3[nH]2)c2cc(C#CCCCN)ccc2F)CC1 (stereo not drawn) [Example 442] | < 30
CN1CCC(OC(c2cccc(CCc3c[nH]cn3)c2)c2nc3ccccc3[nH]2)CC1 (stereo not drawn) [Example 412, 2-[{3-[2-(1H-imidazol-4-yl)ethyl]phenyl}(1-methylpiperidin-4-yloxy)methyl]-1H-benzimidazole] | < 1000
CSCc1cccc(C(OC2CCN(C)CC2)c2nc3ccccc3[nH]2)c1 (stereo not drawn) [Example 528, 2-[(1-methylpiperidin-4-yloxy)(3-methylsulfanylmethylphenyl)methyl]-1H-benzimidazole] | < 300
CN1CCC(OC(c2cccc(SCC3(CCO)CC3)c2)c2nc3ccccc3s2)CC1 (stereo not drawn) [Example 268, 2-(1-{3-[benzothiazol-2-yl(1-methylpiperidin-4-yloxy)methyl]phenylsulfanylmethyl}cyclopropyl)ethanol] | < 300
CN1CCC(OC(c2cccc(OCCCCO)c2)c2nc3ccccc3s2)CC1 (stereo not drawn) [Example 266, 4-{3-[benzothiazol-2-yl(1-methylpiperidin-4-yloxy)methyl]phenoxy}butan-1-ol] | < 300
CN1CCC(OC(c2cccc(C#CCCCCNC(=N)NC(=O)OC(C)(C)C)c2)c2nc3ccccc3[nH]2)CC1 (stereo not drawn) [Example 345, N-tert-butoxycarbonyl-N′-(6-{3-[(1H-benzimidazol-2-yl)(1-methylpiperidin-4-yloxy)methyl]phenyl}hex-5-ynyl)guanidine] | < 300
Cc1ccc(C(OC2CCN(C)CC2)c2nc3ccccc3s2)cc1 (stereo not drawn) [Example 7, 2-[(1-methylpiperidin-4-yloxy)-p-tolylmethyl]benzothiazole] | < 300
CN1CCC(OC(c2cccc(N3CCC(F)C3)c2)c2nc3ccccc3s2)CC1 (stereo not drawn) [Example 430, 2-[[3-(3-fluoropyrrolidin-1-yl)phenyl](1-methylpiperidin-4-yloxy)methyl]benzothiazole] | < 30
CN1CCC(OC(c2ccc3c(c2)OCO3)c2nc3ccccc3[nH]2)CC1 (stereo not drawn) [Example 297, 2-[benzo[1,3]dioxol-5-yl(1-methylpiperidin-4-yloxy)methyl]-1H-benzimidazole] | < 300
CN1CCC(OC(c2cccc(C#CCCCn3nccn3)c2)c2nc3ccccc3[nH]2)CC1 (stereo not drawn) [Example 416, 2-{(1-methylpiperidin-4-yloxy)[3-(5-[1,2,3]triazol-2-yl-pent-1-ynyl)phenyl]methyl}-1H-benzimidazole] | < 300
CN1CCC(OC(c2cccc(SCCN)c2)c2nc3cc(F)ccc3[nH]2)CC1 (stereo not drawn) [Example 428, 2-{3-[(5-fluoro-1H-benzimidazol-2-yl)(1-methylpiperidin-4-yloxy)methyl]phenylsulfanyl}ethylamine] | < 300
CN1CCC(OC(c2cccc(I)c2)c2nc3ccccc3n2C)CC1 (stereo not drawn) [Example 472, 2-[(3-iodophenyl)(1-methylpiperidin-4-yloxy)methyl]-1-methyl-1H-benzimidazole] | < 300
CN1CCC(OC(c2cccc(OCc3cccnc3)c2)c2nc3ccccc3s2)CC1 (stereo not drawn) [Example 284, 2-{(1-methylpiperidin-4-yloxy)[3-(pyridin-3-ylmethoxy)phenyl]methyl}benzothiazole] | < 300
CN1CCC(OC(c2cccc(C#CCCCN)c2)c2nc3ccccc3s2)CC1 (stereo not drawn) [Example 287, 5-{3-[benzothiazol-2-yl(1-methylpiperidin-4-yloxy)methyl]phenyl}pent-4-ynylamine] | < 30
CN1CCC(OC(c2cccc(C3CCN(C(=N)N)CC3)c2)c2nc3ccccc3[nH]2)CC1 (stereo not drawn) [Example 394, 4-{3-[(1H-benzimidazol-2-yl)(1-methylpiperidin-4-yloxy)methyl]phenyl}piperidine-1-carboxamidine] | < 1000
CN1CCC(OC(c2cccc(SCCc3cnccn3)c2)c2nc3ccccc3[nH]2)CC1 (stereo not drawn) [Example 232, 2-{(1-methylpiperidin-4-yloxy)[3-(2-pyrazin-2-yl-ethylsulfanyl)phenyl]methyl}-1H-benzimidazole] | < 1000
CN1CCC(OC(c2cccc(C#CCCNC(=N)NC(=O)OC(C)(C)C)c2)c2nc3ccccc3[nH]2)CC1 (stereo not drawn) [Example 307, N-tert-butoxycarbonyl-N′-(4-{3-[(1H-benzimidazol-2-yl)(1-methylpiperidin-4-yloxy)methyl]phenyl}but-3-ynyl)guanidine] | < 1000
CN1CCC(OC(c2cc(F)cc(F)c2)c2nc3ccccc3s2)CC1 (stereo not drawn) [Example 15, 2-[(3,5-difluorophenyl)(1-methyl-piperidin-4-yloxy)methyl]benzothiazole] | < 300

SMILES | Ki or IC50 activity class [nM]
CN1CCC(OC(c2cccc(SCCNC(=N)N)c2)c2nc3ccccc3s2)CC1 (stereo not drawn) [Example 302, N-(2-{3-[benzothiazol-2-yl(1-methylpiperidin-4-yloxy)methyl]phenylsulfanyl}ethyl)guanidine] | < 30
CN1CCC(OC(c2cccc(N3CCOCC3)c2)c2nc3ccccc3s2)CC1 (stereo not drawn) [Example 243, 2-[(1-methylpiperidin-4-yloxy)(3-morpholin-4-yl-phenyl)methyl]benzothiazole] | < 300
CCOC(=O)n1c(C(OC2CCN(C)CC2)c2cc(OC(F)(F)F)ccc2F)nc2ccccc21 (stereo not drawn) [Example 553] | < 1000
CN1CCC(OC(c2cccc(OCCCCCN3CCN(C(=O)OC(C)(C)C)CC3)c2)c2nc3ccccc3[nH]2)CC1 (stereo not drawn) [Example 391, 4-(5-{3-[(1H-benzimidazol-2-yl)(1-methylpiperidin-4-yloxy)methyl]phenoxy}pentyl)piperazine-1-carboxylic acid tert-butyl ester] | < 1000
CN1CCC(OC(c2cccc(-c3ccc(F)c(F)c3F)c2)c2nc3ccccc3s2)CC1 (stereo not drawn) [Example 141, 2-[(1-methylpiperidin-4-yloxy)(2′,3′,4′-trifluorobiphenyl-3-yl)methyl]benzothiazole] | < 300
COc1cccc(C(NC2CCN(C)CC2)c2nc3ccccc3s2)c1 (stereo not drawn) [Example 25, [benzothiazol-2-yl(3-methoxyphenyl)methyl](1-methylpiperidin-4-yl)amine] | < 30
Cc1ccc(F)c(C(OC2CCN(C)CC2)c2nc3ccccc3[nH]2)c1 (stereo not drawn) [Example 490] | < 300
CN1CCC(OC(c2cccc(OCCN3CCNCC3)c2)c2nc3ccccc3s2)CC1 (stereo not drawn) [Example 330, 2-{(1-methylpiperidin-4-yloxy)[3-(2-piperazin-1-yl-ethoxy)phenyl]methyl}benzothiazole] | < 300
CN1CCC(OC(c2ccc3c(c2)OCO3)c2nc3ccccc3s2)CC1 (stereo not drawn) [Example 20, 2-[benzo[1,3]dioxol-5-yl(1-methylpiperidin-4-yloxy)methyl]benzothiazole] | < 300
CN1CCC(OC(c2cccc(OCc3ccncc3)c2)c2nc3ccccc3s2)CC1 (stereo not drawn) [Example 265, 2-{(1-methylpiperidin-4-yloxy)[3-(pyridin-4-ylmethoxy)phenyl]methyl}benzothiazole] | < 300
CN1CCC(OC(c2cccc(SCCN)c2)c2nc3ccccc3s2)CC1 (stereo not drawn) [Example 269, 2-{3-[benzothiazol-2-yl(1-methylpiperidin-4-yloxy)methyl]phenylsulfanyl}ethylamine] | < 30
Fc1ccc(OC(F)(F)F)cc1C(OCC1CNC1)c1nc2ccccc2[nH]1 (stereo not drawn) [Example 515] | < 1000
COc1ccc(-c2cccc(C(OC3CCN(C)CC3)c3nc4ccccc4s3)c2)cc1 (stereo not drawn) [Example 100, 2-[(4′-methoxybiphenyl-3-yl)(1-methylpiperidin-4-yloxy)methyl]benzothiazole] | < 300
CN1CCC(OC(c2cccc(C#CCCCN)c2)c2nc3cc(F)ccc3[nH]2)CC1 (stereo not drawn) [Example 438, 5-{3-[(5-fluoro-1H-benzimidazol-2-yl)(1-methylpiperidin-4-yloxy)methyl]phenyl}pent-4-ynylamine] | < 30
CN1CCC(OC(c2cccc(C#CCCCn3ccnc3)c2)c2nc3ccccc3[nH]2)CC1 (stereo not drawn) [Example 409, 2-[[3-(5-imidazol-1-ylpent-1-ynyl)phenyl](1-methylpiperidin-4-yloxy)methyl]-1H-benzimidazole] | < 300
CN1CCC(OC(c2cccc(C=CS(=O)(=O)c3ccccc3)c2)c2nc3ccccc3s2)CC1 (stereo not drawn) [Example 209, 2-[[3-(2-benzenesulfonylvinyl)phenyl](1-methylpiperidin-4-yloxy)methyl]benzothiazole] | < 300
CN1CCC(OC(c2cccc(OCCCCn3cncn3)c2)c2nc3ccccc3s2)CC1 (stereo not drawn) [Example 316, 2-{(1-methylpiperidin-4-yloxy)[3-(4-[1,2,4]triazol-1-yl-butoxy)phenyl]methyl}benzothiazole] | < 300
COc1cc(F)cc(C(NC2CCN(C)CC2)c2nc3ccccc3s2)c1 (stereo not drawn) [Example 43, [benzothiazol-2-yl(3-fluoro-5-methoxyphenyl)methyl](1-methylpiperidin-4-yl)amine] | < 300
CN1CCC(OC(c2cc(C(F)(F)F)cc(C(F)(F)F)c2)c2nc3ccccc3[nH]2)CC1 (stereo not drawn) [Example 547] | < 1000
CN1CCC(OC(c2cccc(SCCCCO)c2)c2nc3ccccc3s2)CC1 (stereo not drawn) [Example 256, 4-{3-[benzothiazol-2-yl(1-methylpiperidin-4-yloxy)methyl]phenylsulfanyl}butan-1-ol] | < 30

Same assay, conditions: human H4 receptor; evaluated in the GTPγ[35S] assay or in the [3H]histamine binding assay (not stated which per compound); Ki or IC50 class

SMILES | Ki or IC50 activity class [nM]
CN1CCC(OC(c2cccc(N3CCC(N)C3)c2)c2nc3ccccc3s2)CC1 (stereo not drawn) [Example 429, 1-{3-[benzothiazol-2-yl(1-methylpiperidin-4-yloxy)methyl]phenyl}pyrrolidin-3-ylamine] | < 300

Same assay, conditions: read-out: Activity (Ki or IC50)

SMILES | Ki [nM]
CN1CCC(OC(c2cccc(SCCNC(=N)NC(=O)C(C)(C)C)c2)c2nc3ccccc3[nH]2)CC1 (stereo not drawn) [Example 446] | < 300
